This assay has as its target T1, human PD-1 / PD-L1-Ig binding on Jurkat cell line over-expressing human PD-1 (Jurkat-PD-1) (Homo sapiens, UniProt Q15116).
T1 construct: expressed in transfected cells; host or cells: Jurkat
Kind of assay: Jurkat-PD-1 Cell Binding High-Content Screening Assay (CBA). The settings on record: Jurkat-PD-1 cells, PE-labeled PD-L1-Ig 20 nM final; read-out: Jurkat HPD1_PDL1 IC50. It is filed as cell-based. The method, boiled down: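 PE-PD-L1-Ig 20 nM final; cells in DMEM/10% FCS; cpd pre-incubation 2 h, 37° C; ligand 1 h; PFA fix + Hoechst 33342; high-content imaging read-out.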

Where a SMILES comes first, the peptide text is derived from it. Bridges are numbered along the chain shown (N, C = ends). [ ]: non-standard residue; d: D form. The star is where a group is joined. ξ: configuration not given here. Phe(4-(2-Et-4-HO-Ph)) = CCc1cc(O)ccc1-c1ccc(C[C@H](N)C(=O)O)cc1; Phe(3-CF3) = N[C@@H](Cc1cccc(C(F)(F)F)c1)C(=O)O; Ala(morpholin-4-yl) = N[C@@H](CN1CCOCC1)C(=O)O; Phe(3-COOH) = N[C@@H](Cc1cccc(C(=O)O)c1)C(=O)O; Phe(4-COOH) = N[C@@H](Cc1ccc(C(=O)O)cc1)C(=O)O; Bip = N[C@@H](Cc1ccc(-c2ccccc2)cc1)C(=O)O; Phe(3-Me) = Cc1cccc(C[C@H](N)C(=O)O)c1; Val(3-OH) = CC(C)(O)[C@H](N)C(=O)O; 3Pal = N[C@@H](Cc1cccnc1)C(=O)O; 4Pal = N[C@@H](Cc1ccncc1)C(=O)O; Cha = N[C@@H](CC1CCCCC1)C(=O)O; Cit = NC(=O)NCCC[C@H](N)C(=O)O; Ile(3ξ) = CCC(C)[C@H](N)C(=O)O; dCha = N[C@H](CC1CCCCC1)C(=O)O; Carboxymethyl = O=C(O)C*; Orn = NCCC[C@H](N)C(=O)O; Dab = NCC[C@H](N)C(=O)O; Dap = NC[C@H](N)C(=O)O; Propargyl = C#CC*

T1 sequence (Q15116 25-288): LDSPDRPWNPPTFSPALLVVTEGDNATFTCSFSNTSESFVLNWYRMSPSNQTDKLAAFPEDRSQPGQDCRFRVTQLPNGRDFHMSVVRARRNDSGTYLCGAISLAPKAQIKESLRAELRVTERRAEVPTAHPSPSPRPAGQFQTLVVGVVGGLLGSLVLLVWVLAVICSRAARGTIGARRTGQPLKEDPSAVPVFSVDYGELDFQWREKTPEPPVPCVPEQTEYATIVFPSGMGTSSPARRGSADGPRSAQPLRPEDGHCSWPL

As a reminder, the IC50 is the concentration at which inhibition is half-maximal. With `CC(C)C[C@@H]1NC(=O)[C@H](CC(N)=O)NC(=O)[C@@H](CC(C)C)NC(=O)[C@H](CN)NC(=O)[C@H](C(C)C)NC(=O)[C@H](Cc2ccc(-c3ccccc3)cc2)NC(=O)[C@H](C(C)C)NC(=O)[C@H](Cc2c[nH]c3ccccc23)NC(=O)[C@H](CC(=O)O)NC(=O)[C@H](Cc2ccc(OCC(=O)O)cc2)NC(=O)[C@H](Cc2ccc(OCC(=O)O)cc2)NC(=O)CSC[C@@H](C(=O)NCC(N)=O)NC(=O)[C@H](CO)NC(=O)[C@H](C(C)C)NC1=O` [Compound 1292] ({CH2CO}-Y(Carboxymethyl)Y(Carboxymethyl)DWV[Bip]V[Dap][dL]NLVSCG-NH2; thioether N-14), the IC50 was determined as 7.2 nM. Next, `CC[C@H](C)[C@@H]1NC(=O)[C@H](Cc2ccc(-c3ccccc3)cc2)NC(=O)[C@H](C(C)C)NC(=O)[C@H](Cc2cccc(C)c2)NC(=O)[C@H](CC(=O)O)NC(=O)[C@H](Cc2ccc(C(=O)O)cc2)NC(=O)[C@H](Cc2ccncc2)NC(=O)CSC[C@@H](C(N)=O)NC(=O)[C@H]([C@@H](C)O)NC(=O)[C@H](C(C)C)NC(=O)[C@H](CC2CCCCC2)NC(=O)[C@H](CCN)NC(=O)[C@@H](CC(C)C)NC(=O)[C@H](CCCN)NC1=O` [Compound 1547] ({CH2CO}-[4Pal][Phe(4-COOH)]D[Phe(3-Me)]V[Bip]I[Orn][dL][Dab][Cha]VTC-NH2; thioether N-14): 15.9 nM; `CCC(C)[C@@H]1NC(=O)[C@H](Cc2ccc(-c3ccccc3)cc2)NC(=O)[C@H](C(C)C)NC(=O)[C@H](Cc2c[nH]c3ccccc23)NC(=O)[C@H](CC(=O)O)NC(=O)[C@H](Cc2cccnc2)NC(=O)[C@H](Cc2ccccc2)NC(=O)CSC[C@@H](C(=O)N[C@@H](C)C(N)=O)NC(=O)[C@H]([C@@H](C)O)NC(=O)[C@H](C(C)C)NC(=O)[C@H](CC2CCCCC2)NC(=O)[C@H](CCN)NC(=O)[C@@H](CC(C)C)NC(=O)[C@H](CCCN)NC1=O` (stereo partly drawn) [Compound 2229] ({CH2CO}-F[3Pal]DWV[Bip][Ile(3ξ)][Orn][dL][Dab][Cha]VTCA-NH2; thioether N-14): 21.5 nM; `CC(C)C[C@H]1NC(=O)[C@H](CCCN)NC(=O)[C@H](C(C)C)NC(=O)[C@H](Cc2ccc(-c3ccccc3)cc2)NC(=O)[C@H](C(C)C)NC(=O)[C@H](Cc2c[nH]c3ccccc23)NC(=O)[C@H](CC(=O)O)NC(=O)[C@H](Cc2ccc(OCC(=O)O)cc2)NC(=O)[C@H](CN)NC(=O)CSC[C@@H](C(=O)N[C@@H](C)C(N)=O)NC(=O)[C@H](CCCCN)NC(=O)[C@H](C(C)C)NC(=O)[C@H](CC2CCCCC2)NC(=O)[C@H](CCN)NC1=O` [Compound 1744] ({CH2CO}-[Dap]Y(Carboxymethyl)DWV[Bip]V[Orn][dL][Dab][Cha]VKCA-NH2; thioether N-14): 4.7 nM. `CC(C)C[C@@H]1NC(=O)[C@H](CCN)NC(=O)[C@@H](CC(C)C)NC(=O)[C@H](CCCCN)NC(=O)[C@H](CCCNC(N)=O)NC(=O)[C@H](Cc2ccc(-c3ccccc3)cc2)NC(=O)[C@H](C(C)C)NC(=O)[C@H](Cc2c[nH]c3ccccc23)NC(=O)[C@H](CC(=O)O)NC(=O)[C@H](Cc2ccc(O)cc2)NC(=O)[C@H](CC(N)=O)NC(=O)CSC[C@@H](C(=O)N[C@@H](C)C(N)=O)NC(=O)[C@H]([C@@H](C)O)NC(=O)[C@H](C(C)C)NC1=O` [Compound 1019] ({CH2CO}-NYDWV[Bip][Cit]K[dL][Dab]LVTCA-NH2; thioether N-14): the IC50 is 20.6 nM. Regarding `COc1cccc(C[C@@H]2NC(=O)[C@H](CC(=O)O)NC(=O)[C@H](Cc3ccc(OCC(=O)O)cc3)NC(=O)[C@H](CN)NC(=O)CSC[C@@H](C(=O)N[C@@H](C)C(N)=O)NC(=O)[C@H]([C@@H](C)O)NC(=O)[C@H](C(C)C)NC(=O)[C@H](CC3CCCCC3)NC(=O)[C@H](CCN)NC(=O)[C@@H](CC(C)C)NC(=O)[C@H](CCCN)NC(=O)[C@H](CCC(=O)O)NC(=O)[C@H](Cc3ccc(-c4ccccc4)cc3)NC(=O)[C@H](C(C)C)NC2=O)c1` [Compound 1467], the IC50 stood at 112 nM. As for `CC(C)C[C@@H]1NC(=O)[C@H](Cc2c[nH]c3ccccc23)NC(=O)[C@H](CC(=O)O)NC(=O)[C@H](Cc2ccc(C(=O)O)cc2)NC(=O)[C@H](Cc2cccc(C(=O)O)c2)NC(=O)CSC[C@@H](C(=O)NCC(N)=O)NC(=O)[C@H](CO)NC(=O)[C@H](C(C)C)NC(=O)[C@H](CC2CCCCC2)NC(=O)[C@H](CCN)NC(=O)[C@@H](CC(C)C)NC(=O)[C@H](CCCN)NC(=O)[C@H](C(C)C)NC(=O)[C@H](Cc2ccc(-c3ccccc3)cc2)NC1=O` [Compound 2014] ({CH2CO}-[Phe(3-COOH)][Phe(4-COOH)]DWL[Bip]V[Orn][dL][Dab][Cha]VSCG-NH2; thioether N-14), the figure is 17.2 nM; as for `CC(C)C[C@@H]1NC(=O)[C@H](CCN)NC(=O)[C@@H](CC(C)C)NC(=O)[C@H](CCCN)NC(=O)[C@H](CCCNC(N)=O)NC(=O)[C@H](Cc2ccc(-c3ccccc3)cc2)NC(=O)[C@H](C(C)C)NC(=O)[C@H](Cc2c[nH]c3ccccc23)NC(=O)[C@H](CC(=O)O)NC(=O)[C@H](Cc2ccc(C(=O)O)cc2)NC(=O)[C@H](Cc2cccnc2)NC(=O)CSC[C@@H](C(=O)N[C@@H](C)C(N)=O)NC(=O)[C@H]([C@@H](C)O)NC(=O)[C@H](C(C)C)NC1=O` [Compound 1045] ({CH2CO}-[3Pal][Phe(4-COOH)]DWV[Bip][Cit][Orn][dL][Dab]LVTCA-NH2; thioether N-14), 28.4 nM. Turning to `CC(C)[C@@H]1NC(=O)[C@H](Cc2c[nH]c3ccccc23)NC(=O)[C@H](CC(=O)O)NC(=O)[C@H](Cc2ccncc2)NC(=O)[C@H](Cc2ccc(OCC(=O)O)cc2)NC(=O)CSC[C@@H](C(=O)N[C@@H](C)C(N)=O)NC(=O)[C@H]([C@@H](C)O)NC(=O)[C@H](C(C)C)NC(=O)[C@H](CC2CCCCC2)NC(=O)[C@H](CCN)NC(=O)[C@@H](CC2CCCCC2)NC(=O)[C@H](CCCN)NC(=O)[C@H](C(C)C)NC(=O)[C@H](Cc2ccc(-c3ccccc3)cc2)NC1=O` [Compound 1637] ({CH2CO}-Y(Carboxymethyl)[4Pal]DWV[Bip]V[Orn][dCha][Dab][Cha]VTCA-NH2; thioether N-14), the IC50 amounted to 32.7 nM. Next, `CC(C)C[C@H]1NC(=O)[C@H](CCCN)NC(=O)[C@H](Cc2ccc(C(=O)O)cc2)NC(=O)[C@H](Cc2ccc(-c3ccccc3)cc2)NC(=O)[C@H](Cc2ccc(C(=O)O)cc2)NC(=O)[C@H](Cc2cccc(C(F)(F)F)c2)NC(=O)[C@H](CC(=O)O)NC(=O)[C@H](Cc2ccc(C(=O)O)cc2)NC(=O)[C@H](CN2CCOCC2)NC(=O)CSC[C@@H](C(=O)N[C@@H](CCN)C(N)=O)NC(=O)[C@H](CO)NC(=O)[C@H](C(C)(C)O)NC(=O)[C@H](CC2CCCCC2)NC(=O)[C@H](CCN)NC1=O` [Example 2710] ({CH2CO}-[Ala(morpholin-4-yl)][Phe(4-COOH)]D[Phe(3-CF3)][Phe(4-COOH)][Bip][Phe(4-COOH)][Orn][dL][Dab][Cha][Val(3-OH)]SC[Dab]-NH2; thioether N-14): 1.2 nM; `C#CCOc1ccc(C[C@@H]2NC(=O)[C@H](Cc3ccc(-c4ccccc4)cc3)NC(=O)[C@H](Cc3ccc(OCC(=O)O)cc3)NC(=O)[C@H](Cc3cccc(C)c3)NC(=O)[C@H](CC(=O)O)NC(=O)[C@H](Cc3ccc(OCC(=O)O)cc3)NC(=O)[C@H]([C@@H](C)O)NC(=O)CSC[C@@H](C(=O)N[C@@H](CCN)C(N)=O)NC(=O)[C@H](CCC(=O)O)NC(=O)[C@H](C(C)C)NC(=O)[C@H](CC3CCCCC3)NC(=O)[C@H](CCN)NC(=O)[C@@H](CC(C)C)NC(=O)[C@H](CCCN)NC2=O)cc1` [Compound 1836] ({CH2CO}-TY(Carboxymethyl)D[Phe(3-Me)]Y(Carboxymethyl)[Bip]Y(Propargyl)[Orn][dL][Dab][Cha]VEC[Dab]-NH2; thioether N-14): 7.2 nM; `CCc1cc(O)ccc1-c1ccc(C[C@@H]2NC(=O)[C@H](Cc3cccc(C(F)(F)F)c3)NC(=O)[C@H](CC(=O)O)NC(=O)[C@H](Cc3ccc(C(=O)O)cc3)NC(=O)[C@H](CN3CCOCC3)NC(=O)CSC[C@@H](C(=O)N[C@@H](CCN)C(N)=O)NC(=O)[C@H](CCC(=O)O)NC(=O)[C@H](C(C)C)NC(=O)[C@H](CC3CCCCC3)NC(=O)[C@H](CCN)NC(=O)[C@@H](CC(C)C)NC(=O)[C@H](CCCN)NC(=O)[C@H](Cc3ccc(C(=O)O)cc3)NC(=O)[C@H](Cc3ccc(-c4ccccc4)cc3)NC2=O)cc1` [Example 2733] ({CH2CO}-[Ala(morpholin-4-yl)][Phe(4-COOH)]D[Phe(3-CF3)][Phe(4-(2-Et-4-HO-Ph))][Bip][Phe(4-COOH)][Orn][dL][Dab][Cha]VEC[Dab]-NH2; thioether N-14): 2.5 nM. As for `CCC(C)[C@@H]1NC(=O)[C@H](Cc2ccc(-c3ccccc3)cc2)NC(=O)[C@H](C(C)C)NC(=O)[C@H](Cc2c[nH]c3ccccc23)NC(=O)[C@H](CC(=O)O)NC(=O)[C@H](Cc2ccc(OCC(=O)O)cc2)NC(=O)[C@H](CN)NC(=O)CSC[C@@H](C(=O)N[C@@H](C)C(N)=O)NC(=O)[C@H](C(C)O)NC(=O)[C@H](C(C)C)NC(=O)[C@H](CC2CCCCC2)NC(=O)[C@H](CCN)NC(=O)[C@@H](CC(C)C)NC(=O)[C@H](CCCN)NC1=O` (some centres unmarked) [Compound 2520], the figure is 10.5 nM; as for `Cc1cccc(C[C@@H]2NC(=O)[C@H](CC(=O)O)NC(=O)[C@H](Cc3ccncc3)NC(=O)[C@H](CN)NC(=O)CSC[C@@H](C(=O)NCC(N)=O)NC(=O)[C@H](CO)NC(=O)[C@H](C(C)C)NC(=O)[C@H](CC(C)C)NC(=O)[C@H](CCN)NC(=O)[C@@H](CC(C)C)NC(=O)[C@H](CCCN)NC(=O)[C@H](C(C)C)NC(=O)[C@H](Cc3ccc(-c4ccccc4)cc3)NC(=O)[C@H](CC(C)C)NC2=O)c1` [Compound 1261] ({CH2CO}-[Dap][4Pal]D[Phe(3-Me)]L[Bip]V[Orn][dL][Dab]LVSCG-NH2; thioether N-14), 13.1 nM.

The values above are taken from patent US20250163104A1, “MACROCYCLIC IMMUNOMODULATORS” (priority 2021, published 2025).
